Ends that are not written are not given here.

What all share (type): cell-based, Candida albicans (ATCC 90028)
The test system of assay [1] is C. albicans biofilm. The experiment in a line: Microscopic analysis of treated C. albicans biofilms. As to conditions: 20 µg/mL, 24 h at 37 °C, transmitted light, compared with untreated and Pom-1 control biofilms. The procedure:
C. albicans biofilms were treated with Pom-1, and its derivatives in comparison to an untreated bifilm control (Figure 4B).
Figure 4 Antifungal activity of Pom-1A to F towards C. albicans biofilms. (A) Determined dose-dependent effect of Pom-1 derivatives on biofilm mass by crystal violet assay with fluconazole and Pom-1 as the control agent. All experiments were performed in triplicate and error bars indicate standard deviations. (B) Microscopic analysis using a Leica DMi8 coded (Leica Microsystems CMS GmbH, Wetzlar, Germany) microscope) of untreated C. albicans biofilm and biofilm treated with Pom-1 and its derivatives (20 µg/mL) after 24 h of incubation at 37 °C under transmitted light. TEXT PRINTED IN THE PICTURE: (A) Pom-1A: IC50: 0.9555 | (A) Pom-1B: IC50: 0.008353 | (A) Pom-1C: IC50: 0.08687 | (A) Pom-1D: IC50: 4.930e-032 | (A) Pom-1E: IC50: 2.893 | (A) Pom-1F: IC50: 0.1570 DOUBTS OF THE COPYIST ABOUT THIS PICTURE: Pom-1A, IC50: small print, 0.9555 could be 0.9535 or 0.9556 / Pom-1B, IC50: small print, 0.008353 digits 8/3/5 not certain / Pom-1C, IC50: small print, 0.08687 digits 8/6 not certain / Pom-1D, IC50: small print, 4.930e-032 digits 9/3 not certain / Pom-1E, IC50: small print, 2.893 digits 8/9/3 not certain / Pom-1F, IC50: small print, 0.1570 digit 5 not certain

Assay [2] concerns C. albicans biofilm. Set-up: semi inhibitory concentration (IC50) of biofilm formation / IC50 Values against Biofilm Formation: unit not given here. As to conditions: for IC50 Values against Biofilm Formation / semi inhibitory concentration (IC50) of biofilm formation: C. albicans, crystal violet, 24 h, 37 °C, 2.5–20 µg/mL, Hill fit, triplicate; for IC50 Values against Biofilm Formation: without agitation, Table 1 (rounded); for Antimicrobial Activity against C. albicans Biofilm [%] Based on IC50 Values: in comparison to Pom-1 (= 100%), from IC50 values; for semi inhibitory concentration (IC50) of biofilm formation: Figure 4A. As for the experimental part: The analysis of the antifungal effect of the peptides on biofilm followed the same conditions as described previously. In brief, 2.5 × 10^3 yeast cells were incubated in 200 µL RPMI-1640 medium with L-glutamine in flat-bottomed polystyrene microtiter plates with 96 wells (Sarstedt AG and Co. KG, Nümbrecht, Germany) with the respective peptides at different concentrations (2.5–20 µg/mL) for 24 h at 37 °C, but without agitation. The quantification of the biofilm took place due to a crystal violet assay, which was originally developed by George O’ Toole for bacteria and was adapted for Candida biofilms. For this, the planktonic phase in the wells was removed and the biofilms were washed twice with 200 µL of demineralized water. Subsequently, the cells in the biofilm were stained for 15 min with 200 µL of a 0.1% (w/v) crystal violet solution. The solution was then removed again and the stained cells were washed twice with 200 µL of demineralized water. Then, the biofilms in the microtiter plate were dried for 24 h at 25 °C. These were then mixed with 200 µL of 30% acetic acid. After 15 min, the stained solution was transferred to a new microtiter plate and the absorbance at 560 nm was measured using a Tecan infinite F200 microplate reader. The data obtained were then graphically identified using a Hill non-linear dose-response equation and the semi-inhibitory concentration (IC50) was determined, at which 50% of the biofilm was not formed compared to the untreated control.
In order to evaluate the potential of the novel Pom-1A-F peptides, the well established crystal violet assay for microbial cultures in microtiter plates was performed to quantify the biomass formed.

For assay [3], the system named is planktonic C. albicans cells. The experiment in a line: Resazurin reduction / viability assay on planktonic C. albicans cells (broth microdilution, CLSI M27-A3). As to conditions: for Antimycrobial Activity against Planktonic C. albicans Cells [%] at 20 µg/mL: in comparison to Pom-1 (= 100%), 20 µg/mL peptide; for inhibition of cell viability: planktonic C. albicans, 2.5 × 10^3 cells per well, 20 µg/mL, 24 h, 37 °C, RPMI-1640, resazurin fluorescence, vs untreated cells, triplicate. As for the experimental part: The viability of treated C. albicans cells with Pom-1A to F was determined according to the Clinical and Laboratory Standards Institute guidelines (M27-A3) for the broth microdilution assay. For this, 2.5 × 10^3 yeast cells were incubated in 200 µL of RPMI-1640 medium (supplemented with L-glutamine) in the presence of various concentrations of Pom-1A to F (2.5–20 µg/mL) in flat-bottomed polystyrene microtiter plates with 96 wells (Sarstedt AG and Co. KG, Nümbrecht, Germany) at 37 °C with shaking at 900 rpm on an Eppendorf shaker. Quantitation of viable yeast cells was performed using a Resazurin-reduction-Assay. For this, yeast cells were incubated with 20 µL of 0.15 mg/mL resazurin solution for 2 h. During this time, the viable cells were able to reduce the resazurin to resorufin. […] For this purpose, a dilution series was prepared for each sample in RPMI 1640 medium and 1 µL was added to Sabouraud agar plates, which were then incubated for 24 h at 37 °C, respectively. To determine the antifungal effect of the peptide derivatives on planktonic C. albicans cells, different concentrations (2.5–20 µg/mL) of the peptides were applied to fixed cell numbers (2.5 × 10^3 cells per well) and were incubated for 24 h in a suspension microtiter plate.
(In general: The colour change of resazurin is a common sign of viable cells or microbes.)

In assay [4] the test system is C. albicans planktonic cells. The experiment in a line: Plate spot assay (colony formation after treatment of planktonic cells). As to conditions: after 24 h incubation with peptide (2.5–20 µg/mL), dilutions spotted on Sabouraud agar, further 24 h at 37 °C. As for the experimental part: The viability of treated C. albicans cells with Pom-1A to F was determined according to the Clinical and Laboratory Standards Institute guidelines (M27-A3) for the broth microdilution assay. For this, 2.5 × 10^3 yeast cells were incubated in 200 µL of RPMI-1640 medium (supplemented with L-glutamine) in the presence of various concentrations of Pom-1A to F (2.5–20 µg/mL) in flat-bottomed polystyrene microtiter plates with 96 wells (Sarstedt AG and Co. KG, Nümbrecht, Germany) at 37 °C with shaking at 900 rpm on an Eppendorf shaker. Quantitation of viable yeast cells was performed using a Resazurin-reduction-Assay. For this, yeast cells were incubated with 20 µL of 0.15 mg/mL resazurin solution for 2 h. During this time, the viable cells were able to reduce the resazurin to resorufin. […] The data obtained were subsequently identified in a Hill nonlinear dose-response equation and the semi-inhibitory concentration (IC50) could be determined, at which the cell viability was reduced by 50% compared to the untreated control. In addition, after incubation, 1 µL cell suspension was taken from each well of the microtiter plate to visually confirm the graphical results in a plate spot assay. For this purpose, a dilution series was prepared for each sample in RPMI 1640 medium and 1 µL was added to Sabouraud agar plates, which were then incubated for 24 h at 37 °C, respectively.
For this purpose, 1 µL cell suspension was taken from each well before adding the resazurin solution from the suspension microtiter plate. This sample was then diluted and was added to a Sabourand agar plate, which was then incubated for an additional 24 h for colony formation.

Take “H-KCAGSIAWAIGSGLFGGAKLIKIKKYIAELGGLQ-OH [Pom-1]”: the “biofilm cell density / surface coverage by microscopy” value in the assay on C. albicans biofilm [1] is “significant reduction”. For the same compound, in the assay with C. albicans biofilm [2], the “IC50 Values against Biofilm Formation” value was 3.8 and the “Antimicrobial Activity against C. albicans Biofilm [%] Based on IC50 Values” amounted to 100%. For the same compound, the “Antimycrobial Activity against Planktonic C. albicans Cells [%] at 20 µg/mL” value (“Antimycrobial Activity … [%] at 20 µg/mL” below) in assay [3] is on record as 100%.
Take `OC(Cn1cncn1)(Cn1cncn1)c1ccc(F)cc1F` [fluconazole, reference compound]: the “inhibition of cell viability” value in assay [3] is reported as “up to 70%”.
With KCAGSIAWAIGSGLFGGAKLIKIKKY [Pom-1B], the “colony formation in plate spot assay” value in assay [4] is recorded as “colony formation decreased with the increase of peptide concentrations”. Also, in the assay with C. albicans biofilm [2], the “semi inhibitory concentration (IC50) of biofilm formation” value (from here on “semi inhibitory concentration (IC50)”) came out at 0.008353, the “IC50 Values against Biofilm Formation” value was 0.008 and the “Antimicrobial Activity against C. albicans Biofilm [%] Based on IC50 Values” worked out at 47500%. In assay [3], the “Antimycrobial Activity … [%] at 20 µg/mL” value is listed as 160% and the “inhibition of cell viability” value is given as “up to 70%”.
As for KCAGSIAWAIGSGLFGGAKLIKIKK [Pom-1E], the “biofilm cell density / surface coverage by microscopy” value in the assay on C. albicans biofilm [1] is on record as “slightly higher surface coverage”. In the assay on C. albicans biofilm [2], the “semi inhibitory concentration (IC50)” value came out at 2.893, the “IC50 Values against Biofilm Formation” value is given as 2.89 and the “Antimicrobial Activity against C. albicans Biofilm [%] Based on IC50 Values” was 131%. For the same compound, in assay [3], the “Antimycrobial Activity … [%] at 20 µg/mL” value came to 153%.
Take IGSGLFGGAKLIKIKKYI [Pom-1A]: the “colony formation in plate spot assay” value in assay [4] was “colony formation decreased with the increase of peptide concentrations”. Further, in the assay with C. albicans biofilm [2], the “semi inhibitory concentration (IC50)” value is on record as 0.9555, the “IC50 Values against Biofilm Formation” value is on record as 0.95 and the “Antimicrobial Activity against C. albicans Biofilm [%] Based on IC50 Values” was found to be 400%. In addition, the “Antimycrobial Activity … [%] at 20 µg/mL” value in assay [3] is on record as 133%.
AIGSGLFGGAKLIKIKKYI [Pom-1F]: the “biofilm cell density / surface coverage by microscopy” value in the assay on C. albicans biofilm [1] was “slightly higher surface coverage”. Also, in the assay on C. albicans biofilm [2], the “semi inhibitory concentration (IC50)” value is listed as 0.1570, the “IC50 Values against Biofilm Formation” value was 0.16 and the “Antimicrobial Activity against C. albicans Biofilm [%] Based on IC50 Values” was determined as 2375%. Besides, the “Antimycrobial Activity … [%] at 20 µg/mL” value in assay [3] came to 82%.
Regarding AGSIAWAIGSGLFGGAKLIKIKKY [Pom-1C], in the assay on C. albicans biofilm [2], the “semi inhibitory concentration (IC50)” value came to 0.08687, the “IC50 Values against Biofilm Formation” value is listed as 0.08 and the “Antimicrobial Activity against C. albicans Biofilm [%] Based on IC50 Values” is on record as 4750%. Also, in assay [3], the “Antimycrobial Activity … [%] at 20 µg/mL” value is 100%.
Regarding IGSGLFGGAKLIKIKKYIA [Pom-1D], the “colony formation in plate spot assay” value in assay [4] was “colony formation decreased with the increase of peptide concentrations”. Also, the “Antimycrobial Activity … [%] at 20 µg/mL” value in assay [3] turned out to be 97%.

The values above are taken from publication PMC8877593, “Increased Activities against Biofilms of the Pathogenic Yeast Candida albicans of Optimized Pom-1 Derivatives” (Pharmaceutics, 2022).
